# Like-named read-outs stand apart in the source and are kept apart here.
# Assays:
# [1] = test system: human hepatocarcinoma SMMC7721 cells; assay: MTT assay, growth inhibition of SMMC7721 cells; assay type: cell-based
# Description: (§1) Human cancer cell lines, human lung adenocarcinoma A549 cells, human hepatocarcinoma SMMC7721 cells, human colorectal carcinoma SW620 cells and HaCaT cells were purchased from American Type Culture Collection (ATCC, Manassas, VA, USA). All cell lines were maintained in Dulbecco’s Modified Eagle Medium (DMEM) media supplemented with fetal bovine serum (10%), penicillin (100 units/mL), and streptomycin (50 units/mL) at 37 °C in a CO2 incubator (95% relative humidity, 5% CO2).
# (§2) Cell viability was confirmed by measuring the ability of cells to transform 3-(4,5-dimethylthia-zol-2-yl)-2,5-diphenyltetrazolium bromide (MTT) to a purple formazan dye. Cells were seeded in 96-well tissue culture plates (3 × 10^3 cells per well) for 24 h. The cells were then incubated with the tested compounds at different concentrations for 72 h. After incubation, 20 µL per well of MTT solution (5 mg/mL in phosphate buffered saline, PBS) was added, followed by incubation for a further 5 h. The medium was aspirated and replaced with 150 µL/well of DMSO to dissolve the formazan salt formed. The colour intensity, which reflects the cell growth condition, was measured at 570 nm using a microplate spectrophotometer (SpectroAmaxTM250, BioTek Instruments, Inc., Winooski, VT, USA).
# HaCaT cells = assay: MTT assay, normal HaCaT cells; assay type: cell-based, human; conditions: 72 h; for IC50: normal cells
# Description: as §1, §2
# [2] = test system: human lung adenocarcinoma A549 cells; assay: MTT assay, growth inhibition of A549 cells; assay type: cell-based
# Description: as §1, §2
# [3] = test system: human colorectal carcinoma SW620 cells; assay: MTT assay, growth inhibition of SW620 cells; assay type: cell-based
# Description: as §1, §2
# bcl-2 G4 DNA [4] = assay: Fluorescence quenching of EB + bcl-2 G4 DNA system; assay type: binding; conditions: [1] = 20.89 μM, [EB] = 16 μM, [DNA] = 2 μM, excitation 350 nm, Tris-HCl KCl buffer pH 7.2
# Description: (§3) All reagents were purchased from commercial suppliers and used without further purification. Solvents were dried and purified by conventional methods prior to use. Distilled water was used in all experiments. Bcl-2 G-quadruplex DNA (5′-[…]-3′) and 5′-FAM-bcl-2-TAMRA-3′ were purchased from Sangon Biotech Co., Ltd. (Shanghai, China) Bcl-2 G-quadruplex DNA formed a G-quadruplex conformation as literature by renaturation for 24 h at 4 °C, after denaturation for 5 min at 90 °C [29]. All aqueous solutions were prepared with doubly distilled water. The Tris-HCl buffer consisting of Tris and KCl, and the pH value was adjusted to 7.2 by HCl solution, which was applied to UV titration, Fluorescence emission titrations.
# Fluorescence spectroscopy measurements were performed on a RF-5301 fluorescence spectrophotometer using a 1 cm path length quartz cell. Fluorescence quenching of the EB + bcl-2 G4 DNA system can be used for a compound having an affinity to DNA in spite of its binding mode, and only measures the ability of the compound to affect the EB fluorescence intensities in the EB + bcl-2 G4 DNA system. The titration processes were repeated until there was no apparent change in the spectra for at least three titrations, indicating the achievement of the binding saturation.
# [5] = test system: bcl-2 G-quadruplex DNA (bcl-2 G4 DNA) (DNA, G4) CGGGCGCGGGAGGAAGGGGGCGGGAGC; assay: UV-vis absorption titration; conditions: K+ (KCl, concentration not given); Tris-HCl pH 7.2; fixed 20 μM compound (60 μM in Figure 3 legend); intrinsic binding constant
# [6] = test system: 5'-FAM-bcl-2-TAMRA-3' (DNA, G4) CGGGCGCGGGAGGAAGGGGGCGGGAGC; assay: FRET melting; conditions: Tris-HCl buffer; 6.0 μM compound (2.4 °C at 3.0 μM); 1 μM DNA (0.2 μM in Figure 4 legend)
# bcl-2 G4 DNA [7] = assay: FRET melting assay; assay type: binding
# Description: The fluorescent labeled oligonucleotide, bcl-2 G-quadruplex DNA (5′-FAM-[…]-TAMRA-3′, FAM: carboxyfluorescein, TAMRA: 6-carboxy tetramethylrhodamine) used as the FRET probe was diluted in TrisHCl buffer and then annealed by being heated to 90 °C for 5 min, followed by slowly cooling to room temperature. Ds26 duplex DNA ([…]) was competitive binders to evaluate the selective binding ability of 1 with bcl-2 G4 DNA. Fluorescence melting curves were determined with a Bio-RadiQ5 realtime PCR detection system (Bio-Rad, Berkeley, CA, USA), by using a total reaction volume of […], with labeled oligonucleotide (1 μM) and different concentrations of complex in Tris-HCl buffer. A constant temperature was maintained for 30 s prior to each reading to ensure a stable value. Final analysis of the data was carried out by using Origin7.5 (Origin Lab, Northampton, MA, USA).
# [8] = test system: bcl-2 G-quadruplex DNA (bcl-2 G4 DNA) (DNA, G4) CGGGCGCGGGAGGAAGGGGGCGGGAGC; assay: ethidium bromide displacement fluorescence; conditions: K+ (KCl, concentration not given); Tris-HCl KCl pH 7.2; EB 16 μM, DNA 2 μM; I/I0 0.83 at 20.89 μM compound
# A549 cells = assay: Flow cytometric analysis of cell cycle arrest (PI staining); assay type: cell-based, human; conditions: 20 μM, 24 h, versus control (55.75%)
# Description: Cells were seeded in six-well tissue culture plates (1 × 10^5 cells per well), and the cell cycle arrest was analyzed by flow cytometry as previously described. […] The fixed cells were washed with PBS and stained with propidium iodide (PI) for 15 min in the dark, then the cell cycle arrest was analyzed with an Epics XL-MCL flow cytometer (Beckman Coulter, Miami, FL, USA).
# bcl-2 G-quadruplex DNA = assay: Electronic absorption titration with bcl-2 G-quadruplex DNA; assay type: binding
# Description: as §3
# Electronic absorption spectra were recorded on a Shimadzu UV-2550 spectrophotometer using 1 cm path length quartz cuvettes (3 mL). The absorption titration of the target complex in Tris-HCl buffer was performed by using a fixed complex concentration to which increments of the DNA stock solution were added. The concentration of the complex solution was 20 μM and bcl-2 G4 DNA was added by degrees. Complex-DNA solutions were allowed to incubate for 3 min before the absorption spectra were recorded.
SMILES,"IC50 ([1]; Homo sapiens, SMMC-7721, 72 h) [µM]","IC50 (HaCaT cells; Homo sapiens, HaCaT) [µM]","IC50 ([2]; Homo sapiens, A549, 72 h) [µM]","IC50 ([3]; Homo sapiens, SW-620, 72 h) [µM]",also measured
Clc1cccc(-c2nc3c4cccnc4c4ncccc4c3[nH]2)c1 [Compound 3],12.6 ± 0.35,13.4 ± 0.56,14.3 ± 0.21,16 ± 0.29,
"N.N.[Cl][Pt][Cl] [cis-platin, reference compound]",,,,,"IC50 ([1]; 72 h, read-out: IC50 (μM) SMMC-7721): 11.7 ± 1.45 µM; IC50 (HaCaT cells): 18.5 ± 1.64 µM; IC50 ([2]; 72 h): 32 ± 4.66 µM; IC50 ([3]; 72 h): 6.29 ± 0.17 µM"
Oc1cccc(-c2nc3c4cccnc4c4ncccc4c3[nH]2)c1 [Compound 4],24.2 ± 2.28,13.9 ± 0.64,3 ± 0.14,16.5 ± 0.28,
FC(F)(F)c1cccc(-c2nc3c4cccnc4c4ncccc4c3[nH]2)c1 [Compound 2],12.9 ± 0.51,17.5 ± 0.58,13.8 ± 0.53,27.2 ± 0.53,
O=[N+]([O-])c1cccc(-c2nc3c4cccnc4c4ncccc4c3[nH]2)c1 [Compound 1],17.5 ± 1.84,27.3 ± 1.49,15 ± 1.01,26.5 ± 0.59,"relative fluorescence intensity (I/I0) of EB-DNA (bcl-2 G4 DNA [4]): about 0.83; toxicity in normal cells (HaCaT cells): low toxicity in normal cells; Kb [5]: ~ 8.7 × 10^7 M^-1; ΔTm [6]: ~ 11 °C; ΔTm of bcl-2 G4 DNA (bcl-2 G4 DNA [7]; 3.0 μM compound): about 2.4 °C; ΔTm of bcl-2 G4 DNA (bcl-2 G4 DNA [7]; 6.0 μM compound): about 11 °C; binding [8]: weak; ratio of G1-phase higher than that of the control (A549 cells): about 12%; hyperchromism at the IL absorption band (bcl-2 G-quadruplex DNA; Tris-HCl buffer pH 7.2, about 273 nm, on addition of bcl-2 G-quadruplex DNA): about 14.1%; bathochromic shift Δλ at the IL absorption band (bcl-2 G-quadruplex DNA; Tris-HCl buffer pH 7.2, on addition of bcl-2 G-quadruplex DNA): 2.1 nm"
